# Data as given in patent US10881636B2, “Dihydroartemisinin-steroid conjugate and preparation method and application thereof” (YUNBAIYAO ZHENGWU SCIENCE AND TECHNOLOGY (SHANGHAI) CO., …, priority 2017, dated 2021).
# Where two headings read alike, the source gives them in different places.
# Experiments:
# [1] = Cytotoxicity on normal cells, CCK-8 assay; type: cell-based; conditions: African green monkey
# Experimental: (§1) African green monkey kidney cells-Vero cells (CCL-81) were used as normal cells to evaluate the cytotoxic effects of the compounds. Under the intervention of such compounds, the living cells can be stained using a cell proliferation-cytotoxicity assay kit Cell Counting Kit-8 (CCK-8 solution), and the OD value was measured to reflect the survival and growth state of the cells, that is, the cell survival rate (%) and the cell growth inhibition rate (%).
# (§2) The culture solution containing 10% FBS was regarded as a complete medium. […] After all the cells were cultured to logarithmic growth phase, the tests were performed as follows.
# (§3) The adherent cells were digested by pancreatin and suspended to directly collect cells. The cell suspension was centrifuged, and after counted, the cells were seeded in a transparent 96-well culture plate and adjusted to 5×10^3 cells/100 μL/well with respective complete mediums. At the same time, each plate was provided with blank wells without cells and samples and control wells with cells but without samples. The 96-well culture plates were then cultured overnight in a 37° C., 5% CO2 incubator. The test compounds were added at 50 μL/well on the next day, and respective complete mediums were added at the same amount. […] While for the control wells and blank wells, complete mediums rather than the compound samples were added, where the complete culture medium was also added at 100 μL/well. […] 2 h before the end of the incubation, the culture medium was removed, and complete culture medium containing 10% CCK-8 solution was added at 100 μL/well.
# (§4) The CC50 was calculated according to the survival rate (%) of Vero cells to reflect the cytotoxic effect of the compounds. The IC50 was calculated according to the growth inhibition (%) of the tumor cells to reflect the antitumor activity of the samples.
# U2OS = assay: Inhibitory effects on various tumor cells; type: cell-based; conditions: Homo sapiens
# Experimental: as §3, §4
# Kasumi = assay: Inhibitory effects on various tumor cells; type: cell-based
# Experimental: as §3, §4
# OV-90 = assay: Inhibitory effects on various tumor cells; type: cell-based; conditions: Homo sapiens; OV-90 cells
# Experimental: as §3, §4
# HC7116 = assay: Inhibitory effects on various tumor cells; type: cell-based
# Experimental: as §3, §4
# HEPG-2 = assay: Inhibitory effects on various tumor cells; type: cell-based; conditions: Homo sapiens, HepG2; HEPG-2 cells
# Experimental: as §3, §4
# DU-145 = assay: Inhibitory effects on various tumor cells; type: cell-based; conditions: Homo sapiens; DU-145 cells
# Experimental: as §3, §4
# SW1990 = assay: Inhibitory effects on various tumor cells; type: cell-based; conditions: Homo sapiens
# Experimental: as §3, §4
# K562 = assay: Inhibitory effects on various tumor cells; type: cell-based; conditions: Homo sapiens
# Experimental: as §3, §4
# RCC-4 = assay: Inhibitory effects on various tumor cells; type: cell-based; conditions: Homo sapiens, RCC4; RCC-4 cells
# Experimental: as §3, §4
# NB4 = assay: Inhibitory effects on various tumor cells; type: cell-based; conditions: Homo sapiens, NB-4
# Experimental: as §3, §4
# RCC4 vhl = assay: Inhibitory effects on various tumor cells; type: cell-based; conditions: Homo sapiens
# Experimental: as §3, §4
# HeLa cells (CCL-2) = assay: Tumor cell growth inhibition, CCK-8 assay; type: cell-based; conditions: Homo sapiens, 48 h, CCK-8, growth inhibition
# Experimental: as §1, §2, §3, §4
# PC-3 cells (CRL-1435) = assay: Tumor cell growth inhibition, CCK-8 assay; type: cell-based; conditions: Homo sapiens, 48 h, CCK-8, growth inhibition, read-out: PC3 IC50
# Experimental: as §1, §2, §3, §4
# 786-O cells (CRL-1932) = assay: Tumor cell growth inhibition, CCK-8 assay; type: cell-based; conditions: Homo sapiens, 786-0; 48 h, CCK-8, growth inhibition
# Experimental: as §1, §2, §3, §4
# Jurkat cells (TIB-152) = assay: Tumor cell growth inhibition, CCK-8 assay; type: cell-based; conditions: Homo sapiens, 48 h, CCK-8, growth inhibition
# Experimental: as §1, §2, §3, §4
# MCF7 cells (HTB-22) = assay: Tumor cell growth inhibition, CCK-8 assay; type: cell-based; conditions: Homo sapiens, 48 h, CCK-8, growth inhibition
# Experimental: as §1, §2, §3, §4
# A549 = assay: Tumor cell growth inhibition; type: cell-based; conditions: Homo sapiens
# Experimental: as §3, §4
# [2] = system: human non-small cell lung cancer cells A549; assay: Xenograft model of human lung cancer cell A549; conditions: nude mice, 10 mg/kg intraperitoneal, 28 days; for deaths during treatment: JZ-02 group 9 mice, paclitaxel group 5 mice; for tumor inhibition rate: from tumor tissue weight
# Excerpt: 23 BALB/c nude mice, weighing 18-22 g and aged 2-4 weeks, were used in the experiment.
# U87 = assay: Inhibitory effects on various tumor cells; type: cell-based; conditions: Homo sapiens, U-87 MG
# Experimental: as §3, §4
# [3] = Vero normal cells, 48 h, CCK-8, cell survival rate, read-out: Vero CC50
SMILES,CC50 at 48 h [1],IC50 (U2OS),IC50 (Kasumi),IC50 (OV-90),IC50 (HC7116),IC50 (HEPG-2),IC50 (DU-145),IC50 (SW1990),IC50 (K562),IC50 (RCC-4),IC50 (NB4),IC50 (RCC4 vhl),IC50 (HeLa cells (CCL-2)),IC50 (PC-3 cells (CRL-1435)),IC50 (786-O cells (CRL-1932)),IC50 (Jurkat cells (TIB-152)),IC50 (MCF7 cells (HTB-22)),IC50 (A549),deaths during treatment [2],tumor inhibition rate [2],other results
"CC(=O)O[C@H]1C(=O)[C@@]2(C)[C@H]([C@H](OC(=O)c3ccccc3)[C@]3(O)C[C@H](OC(=O)[C@H](O)[C@@H](NC(=O)c4ccccc4)c4ccccc4)C(C)=C1C3(C)C)[C@]1(OC(C)=O)CO[C@@H]1C[C@@H]2O [Taxol, paclitaxel, reference compound]",1.5 µM,0.01 µM,0.01 µM,0.01 µM,0.01 µM,0.01 µM,0.01 µM,0.01 µM,0.01 µM,10 µM,0.01 µM,30 µM,0.006 µM,0.006 µM,0.006 µM,0.03 µM,0.01 µM,0.006 µM,one death,52%,
C[C@H]1C(O[C@@H]2CC[C@@]3(C)C(C2)C[C@@H](O)C2C3CC[C@@]3(C)C2CC[C@@H]3[C@H](C)CCC(=O)O)OC2O[C@@]3(C)CCC4[C@H](C)CCC1[C@@]24OO3 (stereo partly drawn) [JZ-4],,,,,,,,,,,,,25 µM,25 µM,100 µM,32 µM,35 µM,2.4 µM,,,"CC50 at 48 h [1, 3]: 100 µM"
C[C@H]1C(O[C@@H]2CC[C@@]3(C)C(C2)C[C@H](O)C2C3CC[C@@]3(C)C2CC[C@@H]3[C@H](C)CCC(=O)O)OC2OC3(C)CCC4[C@H](C)CCC1[C@@]24OO3 (stereo partly drawn) [JZ-2],,0.357 µM,0.157 µM,0.157 µM,0.157 µM,0.5 µM,0.625 µM,0.517 µM,0.157 µM,2.5 µM,0.157 µM,30 µM,0.04 µM,0.26 µM,0.06 µM,0.24 µM,3.39 µM,0.02 µM,no death,58%,"CC50 at 48 h [1, 3]: 7.81 µM; IC50 (U87): 0.517 µM; tumor growth (tumor growth curve, FIG. 1) [2]: significantly inhibit the tumor growth"
CC(C)[C@@H](C)/C=C/[C@@H](C)[C@H]1CCC2C3=CC=C4CC(OC5OC6OC7(C)CCC8[C@H](C)CCC([C@H]5C)[C@@]68OO7)CC[C@]4(C)C3CC[C@@]21C (stereo partly drawn) [JZ-6],100 µM,,,,,,,,,,,,100 µM,100 µM,100 µM,34 µM,45 µM,6.33 µM,,,
C[C@H]1[C@@H](O)O[C@@H]2O[C@@]3(C)CC[C@H]4[C@H](C)CC[C@@H]1[C@@]24OO3 [Dihydroartemisinin],5.88 µM,,,,,,,,,,,,1.66 µM,2.02 µM,1.1 µM,100 µM,100 µM,2.96 µM,,,
